Measured values published in the supplement of paper PMC13380429.

Columns and labels:
[1] = system: A549-ACE2 infected with SARS-CoV-2; assay: cell count relative to DMSO; higher = less toxic; conditions: 24 h
Caco-2 [2] = assay: cell viability relative to DMSO; higher = less toxic; conditions: 72 h
Calu-3 [3] = assay: as above; conditions: 72 h
HepG2 [4] = assay: as above; conditions: 72 h
U2OS [5] = assay: as above; conditions: 72 h
Vero E6 [6] = assay: as above; conditions: 72 h
[7] = system: A549-ACE2 infected with SARS-CoV-2; assay: SARS-CoV-2 infection rate relative to DMSO; higher = more infection; conditions: 24 h
A549-ACE2 [8] = assay: phospholipidosis EC50; higher = less potent phospholipidosis inducer
A549-ACE2 [9] = assay: drug-induced phospholipidosis relative to tamoxifen; higher = more phospholipidosis
[10] = system: A549-ACE2 infected with SARS-CoV-2; assay: morphology score (similarity to uninfected cells); higher = more like uninfected cells; conditions: 24 h
Calu-3 [11] = assay: relative viability EC50 (midpoint between 100% and the lowest measured viability); higher = less toxic; conditions: 72 h
Vero E6 [12] = assay: as above; conditions: 72 h
Caco-2 [13] = assay: drug sensitivity score (DSS) for viability; higher = more toxic; extreme values may be limits of the assay; conditions: 72 h
Calu-3 [14] = assay: as above; conditions: 72 h
HepG2 [15] = assay: as above; conditions: 72 h
U2OS [16] = assay: as above; conditions: 72 h
Vero E6 [17] = assay: as above; conditions: 72 h
Caco-2 [18] = assay: relative viability EC50 (midpoint between 100% and the lowest measured viability); higher = less toxic; conditions: 72 h
HepG2 [19] = assay: as above; conditions: 72 h
U2OS [20] = assay: as above; conditions: 72 h

Nc1ncccc1-c1nc2ccc(-c3ccccc3)nc2n1-c1ccc(C2(N)CCC2)cc1 [ARQ-092]
Conditions	SARS-CoV-2 infection rate [%]	cell count [%]	cell viability [%]	morphology score	phospholipidosis EC50 [nM]
A549-ACE2 [8], 24 h	–	–	–	–	3220
A549-ACE2 [8], 48 h	–	–	–	–	1250
Caco-2 [2], 1 nM	–	–	94.7	–	–
Caco-2 [2], 10 nM	–	–	97.9	–	–
Caco-2 [2], 100 nM	–	–	87.4	–	–
Caco-2 [2], 1000 nM	–	–	68	–	–
Caco-2 [2], 10000 nM	–	–	52.8	–	–
Calu-3 [3], 1 nM	–	–	98.3	–	–
Calu-3 [3], 10 nM	–	–	108	–	–
Calu-3 [3], 100 nM	–	–	95.7	–	–
Calu-3 [3], 1000 nM	–	–	76.3	–	–
Calu-3 [3], 10000 nM	–	–	8.8	–	–
HepG2 [4], 1 nM	–	–	102	–	–
HepG2 [4], 10 nM	–	–	95.2	–	–
HepG2 [4], 100 nM	–	–	90.4	–	–
HepG2 [4], 1000 nM	–	–	72.4	–	–
HepG2 [4], 10000 nM	–	–	51.4	–	–
U2OS [5], 1 nM	–	–	99.8	–	–
U2OS [5], 10 nM	–	–	99.4	–	–
U2OS [5], 100 nM	–	–	102	–	–
U2OS [5], 1000 nM	–	–	91.9	–	–
U2OS [5], 10000 nM	–	–	68.2	–	–
Vero E6 [6], 1 nM	–	–	95.1	–	–
Vero E6 [6], 10 nM	–	–	102	–	–
Vero E6 [6], 100 nM	–	–	86.5	–	–
Vero E6 [6], 1000 nM	–	–	82.2	–	–
Vero E6 [6], 10000 nM	–	–	84.7	–	–
[1], 0.3 µM	–	96	–	–	–
[1], 3 µM	–	98	–	–	–
[1], 10 µM	–	94	–	–	–
[1], 30 µM	–	46	–	–	–
[7], 0.3 µM	107	–	–	–	–
[7], 3 µM	51	–	–	–	–
[7], 10 µM	25	–	–	–	–
[7], 30 µM	78	–	–	–	–
[10], 0.3 µM	–	–	–	-0.1	–
[10], 3 µM	–	–	–	0.72	–
[10], 10 µM	–	–	–	0.54	–
[10], 30 µM	–	–	–	-0.21	–

drug-induced phospholipidosis [%], A549-ACE2 [9]
Conditions	0.3 µM	0.833333 µM	3.33333 µM	6.66667 µM	10 µM	30 µM
24 h	1.77	12	89.4	198	175	50.3
48 h	3.37	9.82	86.6	–	138	36.8
72 h	2.32	7.77	–	–	–	–

Conditions	drug sensitivity score	relative viability EC50 [nM]
Caco-2 [13]	7.1	–
Calu-3 [11]	–	1520
Calu-3 [14]	8.7	–
HepG2 [15]	6.1	–
U2OS [16]	2.7	–
Vero E6 [12]	–	> 10000
Vero E6 [17]	3.3	–

Cc1ccc(NC(=O)Nc2cc(C(F)(F)F)ccc2F)cc1Nc1ccc2c(c1)NC(=O)/C2=C\c1ccc[nH]1 [GNF-5837]
Conditions	SARS-CoV-2 infection rate [%]	cell count [%]	cell viability [%]	morphology score	phospholipidosis EC50 [nM]
A549-ACE2 [8], 24 h	–	–	–	–	2170
A549-ACE2 [8], 48 h	–	–	–	–	2340
A549-ACE2 [8], 72 h	–	–	–	–	2600
Caco-2 [2], 1 nM	–	–	105	–	–
Caco-2 [2], 10 nM	–	–	97.6	–	–
Caco-2 [2], 100 nM	–	–	103	–	–
Caco-2 [2], 1000 nM	–	–	94.5	–	–
Caco-2 [2], 10000 nM	–	–	75.7	–	–
Calu-3 [3], 1 nM	–	–	97.9	–	–
Calu-3 [3], 10 nM	–	–	96.4	–	–
Calu-3 [3], 100 nM	–	–	100	–	–
Calu-3 [3], 1000 nM	–	–	109	–	–
Calu-3 [3], 10000 nM	–	–	96.9	–	–
HepG2 [4], 1 nM	–	–	92.5	–	–
HepG2 [4], 10 nM	–	–	98.7	–	–
HepG2 [4], 100 nM	–	–	98.5	–	–
HepG2 [4], 1000 nM	–	–	103	–	–
HepG2 [4], 10000 nM	–	–	39	–	–
U2OS [5], 1 nM	–	–	99.6	–	–
U2OS [5], 10 nM	–	–	97.2	–	–
U2OS [5], 100 nM	–	–	97.2	–	–
U2OS [5], 1000 nM	–	–	98.2	–	–
U2OS [5], 10000 nM	–	–	85.5	–	–
Vero E6 [6], 1 nM	–	–	107	–	–
Vero E6 [6], 10 nM	–	–	107	–	–
Vero E6 [6], 100 nM	–	–	97	–	–
Vero E6 [6], 1000 nM	–	–	106	–	–
Vero E6 [6], 10000 nM	–	–	83.5	–	–
[1], 0.3 µM	–	100	–	–	–
[1], 3 µM	–	105	–	–	–
[1], 10 µM	–	115	–	–	–
[1], 30 µM	–	96	–	–	–
[7], 0.3 µM	103	–	–	–	–
[7], 3 µM	85	–	–	–	–
[7], 10 µM	22	–	–	–	–
[7], 30 µM	44	–	–	–	–
[10], 0.3 µM	–	–	–	-0.15	–
[10], 3 µM	–	–	–	0.36	–
[10], 10 µM	–	–	–	0.82	–
[10], 30 µM	–	–	–	0.59	–

drug-induced phospholipidosis [%], A549-ACE2 [9]
Conditions	0.3 µM	0.833333 µM	3.33333 µM	6.66667 µM	10 µM	30 µM
24 h	4.96	25.4	116	132	160	164
48 h	4.94	9.4	80.5	95.6	96.1	120
72 h	3.67	5.1	59.1	70.1	78.2	91.4

Conditions	drug sensitivity score	relative viability EC50 [nM]
Caco-2 [13]	1.7	–
Caco-2 [18]	–	> 10000
Calu-3 [11]	–	> 10000
Calu-3 [14]	0	–
HepG2 [15]	3	–
HepG2 [19]	–	3460
U2OS [16]	0.4	–
U2OS [20]	–	> 10000
Vero E6 [12]	–	> 10000
Vero E6 [17]	0.2	–
